We go through 30 compounds from ChEMBL document CHEMBL1817622, “Synthesis, structure-activity relationship and biological evaluation of novel N-substituted matrinic acid derivatives as host heat-stress cognate 70 (Hsc70) down-regulators” (2011).

Calls of active or inactive are those of the source. The calls are words filed in the database; no cut-off is given here.

Assay [1] concerns HepG2 2.2.15. In words: Inhibition of Hsc70 mRNA expression in human HepG2(2.2.15) cells at 100 ug/ml after 24 hrs by RT-PCR analysis. The following applies: HepG2 2.2.15, 24 h. The assay is classed as functional.
In another assay the test system is Hepatitis B virus. In words: Antiviral activity against Hepatitis B virus infected in human HepG2(2.2.15) cells assessed as inhibition of intracellular HBV DNA replication at 100 ug/mL for 24 hrs by RT-PCR analysis. The assay is classed as functional. Further details: scale not given: the % may be the effect or the level left.
A short description of assay [2]: Down regulation of Hsc70 protein level in human HepG2(2.2.15) cells at 500 ug/mL for 24 hrs by RT-PCR analysis. It is filed as functional, cell-based.
A short description of assay [3]: Down regulation of Hsc70 protein level in human HepG2(2.2.15) cells after 24 hrs by RT-PCR analysis. The assay is classed as functional, cell-based.
A short description of assay [4]: Down regulation of Hsc70 protein level in human HepG2(2.2.15) cells at 100 ug/mL for 24 hrs by RT-PCR analysis. The assay is classed as functional, cell-based.
For assay [5], the system named is HepG2 2.2.15. In words: Ratio of […] to compound inhibition of mRNA expression in human HepG2(2.2.15) cells infected with Hepatitis B virus. The assay is classed as functional.

Compound `O=CN1C[C@@H]2CCCN3CCC[C@@H]([C@H]23)[C@H]1CCCC(=O)O` returned an inhibition at 100 µg/mL in the assay on HepG2 2.2.15 [1] of under 10%.

Regarding `C[N+]1(C)C[C@@H]2CCCN3CCC[C@@H]([C@H]23)[C@H]1CCCC(=O)O`, 100 µg/mL produced 14.1% inhibition with HepG2 2.2.15 [1].

Compound `O=C(O)CCC[C@H]1NC[C@@H]2CCC[N+]3([O-])CCC[C@H]1[C@H]23` (some centres not stated) [OXYMATRINIC ACID] displayed an inhibition at 100 µg/mL in the assay with HepG2 2.2.15 [1] of 45.5%.

For `Cc1ccc(S(=O)(=O)N2C[C@@H]3CCCN4CCC[C@@H]([C@H]34)[C@H]2CCCC(=O)O)cc1`, the inhibition at 100 µg/mL in the assay with HepG2 2.2.15 [1] turned out to be 39.8%.

In the case of `CC(=O)N1C[C@@H]2CCCN3CCC[C@@H]([C@H]23)[C@H]1CCCC(=O)O`, the inhibition at 100 µg/mL in the assay on HepG2 2.2.15 [1] worked out at 29.8%.

On to `Cc1cccc(OCC(=O)N2C[C@@H]3CCCN4CCC[C@@H]([C@H]34)[C@H]2CCCC(=O)O)c1`, for which the inhibition at 100 µg/mL in the assay with HepG2 2.2.15 [1] is under 10%.

In the assay on HepG2 2.2.15 [1], `Cc1cccc(OC(C)C(=O)N2C[C@@H]3CCCN4CCC[C@@H]([C@H]34)[C@H]2CCCC(=O)O)c1` (some centres not stated) displayed an inhibition at 100 µg/mL of under 10%.

In the assay with HepG2 2.2.15 [1], `O=C(O)CCC[C@@H]1[C@H]2CCCN3CCC[C@@H](CN1C(=O)CCl)[C@@H]23` displayed an inhibition at 100 µg/mL of under 10%.

For the compound `COc1ccc(CN2C[C@@H]3CCC[N+]4([O-])CCC[C@@H]([C@H]34)[C@H]2CCCC(=O)O)cc1` (some centres not stated), the inhibition at 100 µg/mL in the assay on HepG2 2.2.15 [1] amounted to 69.7%.

`COc1ccc(CN2C[C@@H]3CCCN4CCC[C@@H]([C@H]34)[C@H]2CCCCO)cc1` yielded an inhibition at 100 µg/mL in the assay with HepG2 2.2.15 [1] of 12.2%.

In turn, `O=C(O)CCC[C@@H]1[C@H]2CCCN3CCC[C@@H](CN1CC1CC1)[C@@H]23` came in with an inhibition at 100 µg/mL with HepG2 2.2.15 [1] of under 10%.

For `O=C(O)CCC[C@H]1NC[C@@H]2CCCN3CCC[C@H]1[C@H]23` [MATRINIC ACID], in the assay on HepG2 2.2.15 [1], 100 µg/mL produced 46.2% inhibition.

In the case of `COc1ccc(CN2C[C@@H]3CCCN4CCC[C@@H]([C@H]34)[C@H]2CCCC(=O)O)cc1`, the Activity in the assay on Hepatitis B virus is 77%; in assay [3], “Dose-dependent effect”. In addition, the result in assay [2] and in assay [4] was Active. The compound also showed an inhibition at 100 µg/mL in the assay with HepG2 2.2.15 [1] of 72.1%. For the same compound, in the assay on HepG2 2.2.15 [5], the “fold change (FC)” value stood at 1.3.

Compound `O=C(O)CCC[C@@H]1[C@H]2CCC[N+]3([O-])CCC[C@@H](CN1Cc1ccccc1)[C@@H]23` (some centres not stated) yielded an inhibition at 100 µg/mL with HepG2 2.2.15 [1] of 58.2%.

For the compound `O=C(O)CCC[C@@H]1[C@H]2CCC[N+]3([O-])CCC[C@@H](CN1CC1CC1)[C@@H]23` (some centres not stated), the inhibition at 100 µg/mL in the assay on HepG2 2.2.15 [1] was under 10%.

As to `[O-][N+]12CCC[C@H]3CN[C@H](CCCCO)[C@@H](CCC1)[C@H]32` (some centres not stated) [OXYMATRINOL], the inhibition at 100 µg/mL in the assay with HepG2 2.2.15 [1] is under 10%.

`COc1cccc(CN2C[C@@H]3CCCN4CCC[C@@H]([C@H]34)[C@H]2CCCC(=O)O)c1`: the inhibition at 100 µg/mL in the assay with HepG2 2.2.15 [1] came to 55.6%.

Consider `O=C(O)CCC[C@@H]1[C@H]2CCCN3CCC[C@@H](CN1Cc1ccccc1)[C@@H]23`, for which the inhibition at 100 µg/mL with HepG2 2.2.15 [1] came to 55.9%.

In the assay on HepG2 2.2.15 [1], `O=C(O)CCC[C@@H]1[C@H]2CCCN3CCC[C@@H](CN1CCO)[C@@H]23` yielded an inhibition at 100 µg/mL of 53.7%.

Regarding `CCN1C[C@@H]2CCCN3CCC[C@@H]([C@H]23)[C@H]1CCCC(=O)O`, the inhibition at 100 µg/mL in the assay with HepG2 2.2.15 [1] is under 10%.

Turning to `O=C(O)CCC[C@@H]1[C@H]2CCCN3CCC[C@@H](CN1S(=O)(=O)c1ccccc1)[C@@H]23`, in the assay on HepG2 2.2.15 [1], testing at 100 µg/mL gave an inhibition of 22.1%.

`O=C(O)CCC[C@@H]1[C@H]2CCCN3CCC[C@@H](CN1C(=O)c1ccccc1)[C@@H]23` gave an inhibition at 100 µg/mL in the assay on HepG2 2.2.15 [1] of 33.6%.

As for `O=C1CCC[C@@H]2[C@H]3CCCN4CCC[C@@H](CN12)[C@@H]34` [MATRINE], in the assay on HepG2 2.2.15 [1], testing at 100 µg/mL gave an inhibition of 52.4%.

In the case of `OCCCC[C@@H]1[C@H]2CCCN3CCC[C@@H](CN1Cc1ccccc1)[C@@H]23`, in the assay with HepG2 2.2.15 [1], the inhibition at 100 µg/mL was determined as 25.5%.

With `O=C(O)CCC[C@@H]1[C@H]2CCCN3CCC[C@@H](CN1C(=O)CO)[C@@H]23`, the inhibition at 100 µg/mL with HepG2 2.2.15 [1] was under 10%.

In turn, `CCCN1C[C@@H]2CCCN3CCC[C@@H]([C@H]23)[C@H]1CCCC(=O)O` displayed an inhibition at 100 µg/mL with HepG2 2.2.15 [1] of under 10%.

`C[N+]1(C)C[C@@H]2CCC[N+]3([O-])CCC[C@@H]([C@H]23)[C@H]1CCCC(=O)O` (some centres not stated) returned an inhibition at 100 µg/mL in the assay with HepG2 2.2.15 [1] of under 10%.

In turn, `O=C(O)CCC[C@@H]1[C@H]2CCCN3CCC[C@@H](CN1C(=O)/C=C/c1ccccc1)[C@@H]23` yielded an inhibition at 100 µg/mL in the assay with HepG2 2.2.15 [1] of under 10%.

Take `O=C1CCC[C@@H]2[C@H]3CCC[N+]4([O-])CCC[C@@H](CN12)[C@@H]34` (some centres not stated) [OXYMATRINE]: the Activity with Hepatitis B virus is 56%; in assay [3], “Dose-dependent effect”. Besides, testing at 100 µg/mL in the assay on HepG2 2.2.15 [1] gave an inhibition of 52%.

The compound `OCCCC[C@H]1NC[C@@H]2CCCN3CCC[C@H]1[C@H]23` [MATRINOL] returned an inhibition at 100 µg/mL in the assay with HepG2 2.2.15 [1] of 39.3%.

As usually defined, the inhibition is the change of the read-out against control, counted positive when it falls.
